Test results taken from patent publication US6423699B1, “Combination therapies using benzimidazolones” (American Home Products Corporation, priority 1999, dated 2002).
“And” between values parts separate entries of the source, which are not always exact repeats. Identical values can stand only once.

System: rat uterine decidualization
Experiment: Rat decidualization assay
Assay type: in vivo
Conditions: decidual response; for Estimated EC50 (mg/kg s.c.), individual studies: ovariectomized rats, uterine wet weight; for Estimated average EC50 (mg/kg s.c.): average over dose-response curves
Experimental: 2. Rat Decidualization Assay
b. Animals (RACUC protocol #5002)
The animals are treated once daily for seven days.
Uteri are removed and trimmed of fat.
Body weight: Mean total animal body weight (default-kg)
Decidual response: [(D−C)/C]×100%

SMILES	Estimated EC50 (mg/kg s.c.), individual studies	Estimated average EC50 (mg/kg s.c.)
CC(=O)O[C@]1(C(C)=O)CC[C@H]2[C@@H]3C[C@H](C)C4=CC(=O)CC[C@]4(C)[C@H]3CC[C@@]21C [MPA, medroxyprogesterone acetate]	0.42 mg/kg s.c. and 0.39 mg/kg s.c. (2×)	–
C#C[C@]1(O)CC[C@H]2[C@@H]3CCC4=CC(=O)CC[C@@H]4[C@H]3C(=C)C[C@@]21CC [3-Ketodesogestrel]	0.10 mg/kg s.c. and 0.06 mg/kg s.c. and 0.11 mg/kg s.c.	0.10 mg/kg s.c.
C#C[C@]1(O)CC[C@H]2[C@@H]3CCC4=CC(=O)CC[C@@H]4[C@H]3CC[C@@]21CC [Levonorgestrel]	0.08 mg/kg s.c. and 0.12 mg/kg s.c. and 0.09 mg/kg s.c. (2×)	0.10 mg/kg s.c.
CC(=O)[C@H]1CC[C@H]2[C@@H]3CCC4=CC(=O)CC[C@]4(C)[C@H]3CC[C@]12C [Progesterone]	5.50 mg/kg s.c.	5.62 mg/kg s.c.
